From patent US4107297A, “Antibiotic compound” (The Kitasato Institute, priority 1976, dated 1978)
≈ marks a conversion by molar mass, not a printed value. Where “and” joins values, the source holds several entries; their conditions need not be identical. Equal entries are not always repeated. Structures can show the parent of a compound that is named as a salt.

How the values were obtained:
[1] = tested on: arteriolar pressure (systolic) in the tail; assay: test for hypertensive effect in rats disposed to spontaneous hypertension
[2] = tested on: Mycobacterium Smegmatis ATCC 607; assay: antibacterial activity, MIC by agar dilution method; assay type: cell-based; conditions: Mycolicibacterium smegmatis, ATCC607, medium N, pH 7.0
Excerpt: (§1) Table 1 indicates the antibacterial and antifungal activity of AM-2282 in terms of the minimum inhibitory concentration (mcg/ml) determined by agar dilution method.
(§2) *N: Peptone 0.5 % W/V, meat extract 0.5 % W/V, agar 1.2 % W/V, pH 7.0.

Sarcina lutea PCI 1001 = assay: as above; assay type: cell-based; conditions: Micrococcus luteus, PCI1001, medium N, pH 7.0
Excerpt: as §1, §2

[3] = tested on: Staphylococcus aureus FDA 209P; assay: as above; assay type: cell-based; conditions: FDA209P, medium N, pH 7.0
Excerpt: as §1, §2

[4] = tested on: Proteus vulgaris IFO 3167; assay: as above; assay type: cell-based; conditions: IFO3167, medium N, pH 7.0
Excerpt: as §1, §2

[5] = tested on: Pseudomonas aeruginosa P-3; assay: as above; assay type: cell-based; conditions: P3, medium N, pH 7.0
Excerpt: as §1, §2

Escherichia coli NIJH = assay: as above; assay type: cell-based; conditions: medium N, pH 7.0
Excerpt: as §1, §2

[6] = tested on: Bacillus substilis PCI 219; assay: as above; assay type: cell-based; conditions: PCI219, medium N, pH 7.0
Excerpt: as §1, §2

edema and ulcer = assay: activity on edema and ulcer in rats; assay type: in vivo
Method: The present antibiotic substance is a basic nitrogen-containing compound, viz. a so-called alkaloid-like substance. […] The minimum effective concentration is established to be 1.0 mg/kg.

Saccharomyces sake = assay: antifungal activity, MIC by agar dilution method; assay type: cell-based; conditions: medium P, pH 6.8
Excerpt: as §1
(§3) P: Potato extract containing glucose 1.0 % W/V and agar 1.2 % W/V, pH 6.8

Sclerotinia cinerea = assay: antifungal activity, MIC by agar dilution method; assay type: cell-based; conditions: medium P, pH 6.8
Excerpt: as §1, §3

Aspergillus fumigatus = assay: antifungal activity, MIC by agar dilution method; assay type: cell-based; conditions: medium P, pH 6.8
Excerpt: as §1, §3

Cryptococcus neoformans = assay: antifungal activity, MIC by agar dilution method; assay type: cell-based; conditions: medium P, pH 6.8
Excerpt: as §1, §3

Candida pseudotropicalis = assay: antifungal activity, MIC by agar dilution method; assay type: cell-based; conditions: Kluyveromyces marxianus, medium P, pH 6.8
Excerpt: as §1, §3

Aspergillus brevipus = assay: antifungal activity, MIC by agar dilution method; assay type: cell-based; conditions: medium P, pH 6.8
Excerpt: as §1, §3

Aspergillus niger = assay: antifungal activity, MIC by agar dilution method; assay type: cell-based; conditions: medium P, pH 6.8
Excerpt: as §1, §3

Microsporum gipseum = assay: antifungal activity, MIC by agar dilution method; assay type: cell-based; conditions: medium P, pH 6.8
Excerpt: as §1, §3

Candida albicans = assay: antifungal activity, MIC by agar dilution method; assay type: cell-based; conditions: medium P, pH 6.8
Excerpt: as §1, §3

Trichophyton rubrum = assay: antifungal activity, MIC by agar dilution method; assay type: cell-based; conditions: medium P, pH 6.8
Excerpt: as §1, §3

[7] = tested on: Trichophyton mentagrophytes; assay: antifungal activity, MIC by agar dilution method; assay type: cell-based; conditions: medium P, pH 6.8
Excerpt: as §1, §3

Xanthomonas oryzae = assay: microbe, parasite or virus in culture; assay type: cell-based; conditions: pH 7
Piricularia oryzae = assay: microbe, parasite or virus in culture; assay type: cell-based; conditions: pH 6.8
[8] = solubility in various solvent; assay type: physicochemical
[9] = acute toxicity in mice (Behrens-Karber method); conditions: mouse, in vivo, ip.

For `CN[C@@H]1CC2O[C@@](C)([C@@H]1OC)n1c3ccccc3c3c4c(c5c6ccccc6n2c5c31)C(=O)NC4` [Hydrochloride of AM-2282], the “Degree of hypertension (%)” value ([1]; 0.16 mg/kg, oral, after 1 hr) was -2% and 2%, the “Degree of hypertension (%)” value ([1]; 0.16 mg/kg, oral, after 3 hrs) was 1% and 2% and the “Degree of hypertension (%)” value ([1]; 0.16 mg/kg, oral, after 5 hrs) was 1% and 2%. For the same molecule, the “Degree of hypertension (%)” value ([1]; 0.3 mg/kg, oral, after 3 hrs) was 23% and 13%, the “Degree of hypertension (%)” value ([1]; 0.3 mg/kg, oral, after 5 hrs) was 11% and 12% and the “Degree of hypertension (%)” value ([1]; 0.63 mg/kg, oral, after 1 hr) was 13% and 17%. The “Degree of hypertension (%)” value ([1]; 0.63 mg/kg, oral, after 3 hrs) was 13% and 24%, the “Degree of hypertension (%)” value ([1]; 0.63 mg/kg, oral, after 5 hrs) was 25% and 24% and the “Degree of hypertension (%)” value ([1]; 1.25 mg/kg, oral, after 1 hr) was 15% and 18%. For the same molecule, the “Degree of hypertension (%)” value ([1]; 1.25 mg/kg, oral, after 3 hrs) was 23% and 25%, the “Degree of hypertension (%)” value ([1]; 1.25 mg/kg, oral, after 5 hrs) was 31% and 39% and the minimal effective dose ([1]; Rattus norvegicus, po, read-out: minimum dose rate at which the hypertensive effect appears) was 0.3 mg/kg.
For `CC(N)(Cc1ccc(O)c(O)c1)C(=O)O` (stereo not drawn) [α-methyl DOPA, reference compound], the “Degree of hypertension (%)” value ([1]; 100 mg/kg, after 1 hr) was 7%, the “Degree of hypertension (%)” value ([1]; 100 mg/kg, after 3 hrs) was 13% and the “Degree of hypertension (%)” value ([1]; 100 mg/kg, after 5 hrs) was 13%.
For `CN[C@@H]1CC2O[C@@](C)([C@@H]1OC)n1c3ccccc3c3c4c(c5c6ccccc6n2c5c31)C(=O)NC4` [AM-2282], the MIC [2] was 50 µg/mL (≈ 107 µM), the MIC (Sarcina lutea PCI 1001) was 25 µg/mL (≈ 53.6 µM) and the MIC [3] was greater than 200 µg/mL. The MIC [4] was greater than 200 µg/mL, the MIC [5] was greater than 200 µg/mL and the MIC (Escherichia coli NIJH) was greater than 200 µg/mL. The MIC [6] was greater than 200 µg/mL, the minimal effective dose (edema and ulcer; Rattus norvegicus, read-out: minimum effective concentration (activity on edema and ulcer)) was 1 mg/kg and the “activity on edema and ulcer” value (edema and ulcer; rats) was “exhibit an activity on edema and ulcer”. It also gave an MIC (Saccharomyces sake) of 3.12 µg/mL (≈ 6.69 µM), an MIC (Sclerotinia cinerea) of 0.78 µg/mL (≈ 1.67 µM) and an MIC (Aspergillus fumigatus) of 12.5 µg/mL (≈ 26.8 µM). It also gave an MIC (Cryptococcus neoformans) of 50 µg/mL (≈ 107 µM), an MIC (Candida pseudotropicalis) of 3.12 µg/mL (≈ 6.69 µM) and an MIC (Aspergillus brevipus) of 3.12 µg/mL (≈ 6.69 µM). It also gave an MIC (Aspergillus niger) of 25 µg/mL (≈ 53.6 µM), an MIC (Microsporum gipseum) greater than 100 µg/mL and an MIC (Candida albicans) of 6.25 µg/mL (≈ 13.4 µM). It also gave an MIC (Trichophyton rubrum) of 6.25 µg/mL (≈ 13.4 µM), an MIC [7] of 25 µg/mL (≈ 53.6 µM) and an MIC (Xanthomonas oryzae) of 200 µg/mL (≈ 429 µM). For the same molecule, the MIC (Piricularia oryzae) was 0.78 µg/mL (≈ 1.67 µM), the Solubility ([8]; in chloroform) was “Sparingly soluble” and the Solubility ([8]; in dimethyl formamide) was “Soluble”. The Solubility ([8]; in dimethyl sulfoxide) was “Soluble”, the Solubility ([8]; in ethyl acetate) was “Sparingly soluble” and the Solubility ([8]; in fat) was “soluble in fat”. The Solubility ([8]; in methanol) was “Sparingly soluble”, the Solubility ([8]; in n-butyl acetate) was “Sparingly soluble” and the Solubility ([8]; in n-hexane) was “Insoluble”. The Solubility ([8]; in petroleum ether) was “Insoluble”, the Solubility ([8]; in water) was “Insoluble” and the LD50 [9] was 6.6 mg/kg.
